The record followed here is patent publication US5084563A, “Crystalline 2-O-α-D-glucopyranosyl-L-ascorbic acid, and its preparation and uses” (priority 1989, dated 1992).

A short description of data set [1]: physchem. It is filed as physicochemical. The conditions noted are these: for Remaining ratio: 0 min, 70 uM; for remaining at 1 h, 70 µM / remaining at 2 h, 70 µM / remaining at 4 h, 70 µM / remaining at 18 h, 70 µM / remaining at 24 h, 70 µM: aqueous solution. As to the method:
2-O-α-D-Glucosyl-L-ascorbic acid was compared respectively to the 6-O-α-D-glucosyl-L-ascorbic acid disclosed in Japanese Patent Publication No. 38,158/73, and L-ascorbic acid for their stability in aqueous solution. More particularly, each sample was adjusted to a concentration of 70 micromoles and to pH 7.0 or 2.0, placed in a cuvette, and measured for its absorbance at either 260 nm and pH 7.0 or at 245 nm and pH 2.0 while keeping the solution at 45° C. The remaining ratio (%) was calculated with the absorbance.

Data set [2] in a line: Physical properties: hygroscopicity, deliquescence, loss on drying. It is filed as physicochemical. Particulars: for Hygroscopicity and deliquescence: ambient conditions. As to the method:
(12) Physical properties and color: Colorless and transparent crystal. […] Loss on drying at 130° C. for 2 hours is less than 0.5 w/w %. FIG. 5 is the microscopic view of a crystal growing in a supersaturated solution.

A short description of data set [3]: Dissociation constant. It is filed as physicochemical. An excerpt:
(10) Dissociation constant The pKa is 3.0.

The test system of data set [4] is dd mice. The experiment in a line: Acute toxicity, oral. It is filed as in vivo. An excerpt: A crystalline 2-O-α-D-glucopyranosyl-L-ascorbic acid specimen, prepared by the method in Experiment 1, was orally administered to 7 week-old dd mice for acute toxicity test. As the result, no mouse died when administered with up to […] of the specimen, and higher dose was difficult.

Data set [5] is described as follows: Solubility in water. It is filed as physicochemical. The conditions noted are these: 25° C.
The nature of data set [6]: Solubility in solvents. It is filed as physicochemical.
Data set [7] in a line: Coloring reaction: direct reducing activity. Particulars: 2,6-dichlorophenolindophenol. It is filed as biochemical.
In data set [8] the test system is α-glucosidase. The experiment in a line: Hydrolysis by α-glucosidase. The conditions noted are these: products at molar ratio 1:1. It is filed as biochemical. How it is done: (§1) (14) Structual element: Hydrolyzable by α-glucosidase or by treatment with 1N hydrochloric acid at 100° C. for 5 minutes to form L-ascorbic acid and D-glucose at a molar ratio of 1:1.
Data set [9] can be described thus: Hydrolysis with 1N hydrochloric acid. It is filed as physicochemical. Particulars: 100° C., 5 minutes, products at molar ratio 1:1. How it is done: as §1

Regarding `O=C1O[C@H]([C@@H](O)CO)C(O)=C1O` [AsA, L-ascorbic acid], in data set [1] (pH 2), the Remaining ratio turned out to be 100%; the share remaining (usually the share of the starting amount still present when the sample was taken) at 1 h, 70 µM turned out to be 98%; the share remaining at 2 h, 70 µM was 95%; the amount remaining at 4 h, 70 µM was found to be 88%. In [1] (pH 2), this molecule came in with an amount remaining at 18 h, 70 µM of 12% and a share remaining at 24 h, 70 µM of 4%. Also, in data set [1] (pH 7), the Remaining ratio turned out to be 100%; the fraction remaining at 1 h, 70 µM was 80%; the amount remaining at 2 h, 70 µM was 61%; the amount remaining at 4 h, 70 µM turned out to be 32%. Further, in data set [1] (pH 7), the share remaining at 18 h, 70 µM came out at 1% and the share remaining at 24 h, 70 µM came out at 1%.
Regarding `O=C1O[C@H]([C@@H](O)CO)C(O)=C1O[C@H]1O[C@H](CO)[C@@H](O)[C@H](O)[C@H]1O` [amorphous 2-O-α-D-glucopyranosyl-L-ascorbic acid] [reference compound], in data set [2], the Hygroscopicity and deliquescence result is “strongly hygroscopic”.
Consider `O=C1O[C@H]([C@@H](O)CO)C(O)=C1O[C@H]1O[C@H](CO)[C@@H](O)[C@H](O)[C@H]1O` [2-O-α-D-glucopyranosyl-L-ascorbic acid], for which, in data set [1] (pH 2), the amount remaining at 1 h, 70 µM worked out at 100%; the fraction remaining at 2 h, 70 µM stood at 100%; the fraction remaining at 4 h, 70 µM was 100%; the fraction remaining at 18 h, 70 µM worked out at 100%. Further, the share remaining at 24 h, 70 µM in data set [1] (pH 2) came to 100%. In data set [1] (pH 7), this molecule had a fraction remaining at 1 h, 70 µM of 100%; an amount remaining at 2 h, 70 µM of 100%; a share remaining at 4 h, 70 µM of 100%; a share remaining at 18 h, 70 µM of 100%. The same molecule came in with an amount remaining at 24 h, 70 µM in [1] (pH 7) of 100%. In addition, the pKa (commonly the pH at which an ionisable group is half protonated) in data set [3] turned out to be 3.
With `O=C1O[C@H]([C@@H](O)CO)C(O)=C1O[C@H]1O[C@H](CO)[C@@H](O)[C@H](O)[C@H]1O` [crystalline 2-O-α-D-glucopyranosyl-L-ascorbic acid], the Remaining ratio in [1] (pH 2) and in data set [1] (pH 7) was 100% throughout. Also, in [4] (7 week-old dd mice, higher dose was difficult), the “Dose up to which no mouse died” value is “up to 5 g”. Moreover, the Mortality entry in data set [4] (7 week-old dd mice, up to 5 g of the specimen) is listed as “no mouse died”. Further, the Toxicity entry in [4] (dd mice, overall conclusion) is listed as “extremely low in toxicity”. In data set [5], the Solubility entry was “One hundred and twenty-five”. Moreover, the Solubility in solvents entry in [6] (0.1N acetic acid) is “Readily soluble”; in [6] (0.1N sodium hydroxide), “Readily soluble”; in data set [6] (benzene) it was “insoluble”; in [6] (chloroform), “insoluble”; in data set [6] (ethanol) it was “soluble”; in data set [6] (ether), “insoluble”. Moreover, the Solubility in solvents entry in data set [6] (ethyl acetate) was “insoluble”; in [6] (methanol), “soluble”; in data set [6] (water), “Readily soluble”. In data set [2] (130° C., 2 hours), the Loss on drying entry is given as “less than 0.5 w/w %”. The Hygroscopicity and deliquescence result in [2] was “Free of hygroscopicity and deliquescence”. Further, the Direct reducing activity entry in data set [7] is “no direct reducing activity”. Besides, the “Hydrolysis to L-ascorbic acid and D-glucose” value in data set [8] and in data set [9] was “Hydrolyzable” in each case.
Regarding `O=C1O[C@H]([C@@H](O)CO[C@H]2O[C@H](CO)[C@@H](O)[C@H](O)[C@H]2O)C(O)=C1O` [6GAsA, 6-O-α-D-glucosyl-L-ascorbic acid], in data set [1] (pH 2), the Remaining ratio was determined as 100%; the amount remaining at 1 h, 70 µM is 99%; the amount remaining at 2 h, 70 µM turned out to be 98%; the fraction remaining at 4 h, 70 µM came out at 90%. In [1] (pH 2), this molecule displayed a share remaining at 18 h, 70 µM of 25% and an amount remaining at 24 h, 70 µM of 12%. In data set [1] (pH 7), the Remaining ratio was determined as 100%; the amount remaining at 1 h, 70 µM came to 88%; the fraction remaining at 2 h, 70 µM came to 72%; the amount remaining at 4 h, 70 µM worked out at 43%. In data set [1] (pH 7), this molecule registered an amount remaining at 18 h, 70 µM of 7% and a share remaining at 24 h, 70 µM of 4%.
